System: antigen induced bronchospasm
Assay: Inhibition of antigen induced bronchospasm in passively sensitized guinea pigs
Type: in vivo, guinea pig
Conditions: 60 min before antigen, 3 min after antigen application
Protocol: The following tests were conducted to determine the effectiveness of the new compounds in the inhibition of antigen induced bronchospasm in passively sensitized guinea pigs.
The antigen is twice recrystallised egg albumin. Equal volumes of saline solution of antigen (5 mg/ml) and Freund's complete adjuvant were emulsified and 0.15 ml injected into each hind foot of adult male guinea pigs (DAVIES and JOHNSON: Int. Arch. Allergy 41, 648-654 (1971)).
The animals were bled and the pooled serum stored at -20° C.
Injections of 0.5 ml antiserum of 1:50 dilution were given i.v. 24-48 h before challenge.
Guinea pigs were anaesthetized with pentobarbitone sodium (40 mg/kg i.p.). Cannulae were tied into the trachea and the jugular vein and the lung inflated with a pump at a rate of 72 strokes/min and a constant stroke volume of 6-8 ml.
Bronchospasm, provoked by injecting ovalbumin i.v. was measured as described in COLLIER, H. O. J., J. A. HOLGATE, M. SCHACHTER: THE BRONCHOCONSTRICTOR ACTION OF BRADYKININ IN THE GUINEA-PIG. Brit. J. Pharmacol. 15, 290 (1960) and KONZETT, H. und R. ROSSLER: Versuchsanordnung zu Untersuchungen an der Bronchialmuskulatur. Naunyn-Schmiedebergs Arch. exp. Path. Pharmk. 195, 71-74 (1940)
Drugs were applied p.o. 60 min before antigen. For calculation the following formular was used: [formula]
b=Bronchospasm after antigen injection, measured in mm from tracing
m=maximum height of tracing in mm with arm of the trachea-cannula clamped
a=pre injection height of the tracing in mm
% inhibition of bronchospasm was calculated by comparing control groups with drug pretreated groups 3 min after antigen application.

Compound | % Inhibition of BrSp (bronchospasm) (0.75 mg/kg p.o.) [%] | % Inhibition of BrSp (bronchospasm) (1.5 mg/kg p.o.) [%] | % Inhibition of BrSp (bronchospasm) (3.0 mg/kg p.o.) [%] | % Inhibition of BrSp (bronchospasm) (0.38 mg/kg p.o.) [%]
Cc1c(C)c2ccc(OCCCN3CCC(NC(=O)c4cccs4)CC3)cc2oc1=O [3,4-Dimethyl-7-{3-[4-(thiophene-2-carboxamido)-piperidino]-propoxy}-cumarin, reference compound] | 0 | 40 | 67 | –
Cc1cc(=O)c2ccc(OCCCN3CCC(NC(=O)c4ccccc4)CC3)cc2o1 [7-[3-(4-Benzamidopiperidino)-propoxy]-2-methyl-4H-1-benzopyran-4-one] | 64 | – | – | 55
Cc1cc(=O)c2ccc(OCCCN3CCC(NC(=O)c4ccccc4C)CC3)cc2o1 [7-{3-[4-(2-methylbenzamido)-piperidino]-propoxy}-2-methyl-4H-1-benzopyran-4-one] | 60 | – | – | –
Cc1cc(=O)c2ccc(OCCCN3CCC(NC(=O)c4ccc(F)cc4)CC3)cc2o1 [7-{3-[4-(4-fluorobenzamido)-piperidino]-propoxy}-2-methyl-4H-1-benzopyran-4-one] | – | – | – | 46
